The subject of one data set is HEK 293T cells. The experiment in a line: Monitored cell proliferation assay (xCELLigence growth curves, doubling time). The data set is classed as cell-based, human. The protocol:
Seventy two hours post transfection 1×10^4 HEK 293T cells were seeded per well of a 96 well plate, and then treated after 24h. Cell proliferation was monitored with an xCELLigence system (Roche) (Vistejnova et al., 2009).

Data set [1] concerns 1q12h copy gain in RPE cells. The experiment in a line: FISH for site-specific copy gain. The class given is cell-based, human. The following applies: for hypoxia-dependent copy gain of 1q12h / hypoxia-induced 1q12h copy number gains / KDM4A-dependent 1q12h copy gain upon co-expression: RPE cells; for hypoxia-dependent copy gain of 1q12h: 1% O2 24 hours, JIB-04 62.5 nM or 2 mM succinate pre-treatment, or overexpression; for hypoxia-induced 1q12h copy number gains: 4% oxygen, transfection or 2 mM succinate for 24 hours; for KDM4A-dependent 1q12h copy gain upon co-expression: transient transfection 24 hours. The protocol:
FISH was performed as described in (Manning et al., 2010). Probes for 1q12h, 1q telomere, and chromosome 2, 6, 8, and X alpha satellite were purchased from Rainbow Scientific. Probes for 1q12 (RP11-80L2), Xq13.2 (RP11-451A22), Xq13.1 (RP11-177A4) were purchased as BAC clones from Children's Hospital Oakland Research Institute (CHORI BacPac) FISH verified clone repository. Oligonucleotide probes for 1q21.2 (BCL9) and 1q23.3 were purchased from Agilent (SureFISH). BACS were prepared utilizing PureLink HiPure Plasmid Filter Maxiprep kit (Life Technologies) using the recommended modified wash buffer. Probes were nick translated (Abbot Molecular Kit) in the presence of fluorescently labeled dTTP (Enzo Life Science). Images of multiple planes of fields of nuclei were acquired on an Olympus IX81 Spinning Disk Microscope and analyzed using Slidebook 5.0 software. We used a conservative scoring metric for copy gain. Any foci that were touching were scored as a single foci to prevent increased numbers due to normally replicated foci. For RPE cells, copy gain was scored as any cell with 3 or more distinct foci. For 293T cells, copy gain was scored for any cell with 5 or more distinct foci. For RPE cells each experiment includes at least one replicate from the two different polyclonal stable cell preparations. At least 100 cells for each replicate were scored for all experiments except analysis of single cell clones.
Cells were plated onto culture dishes and allowed to adhere for 20-24 hrs in normoxia (5% CO2, 21% O2, and 74% N2). For hypoxic treatment, cells were maintained in a HERA Cell 150™ incubator (Thermo Scientific) flushed with 5% CO2, 1% O2 or 4% O2, and balanced with N2 for the duration of the experiment. Incubator calibrations were carried out by Bianchi Associates Calibrations/Verifications.
To release, cells were washed twice with culture medium pre-conditioned in normoxia or hypoxia, and supplied with fresh pre-conditioned media. For JIB-04 treatment, normoxic cells were pre-treated with 62.5 nM JIB-04 (Xcessbio) for 24 hrs, then treated again with JIB-04 and either transferred to 1% O2 or maintained in normoxia for an additional 24 hrs. Succinate was administered at a final concentration of 2 mM and cells were either maintained in normoxia for 72 hrs or maintained in normoxia for 48 hrs prior to being transferred to 1% O2 for 24 hrs.
FISH was performed as described in (Black et al., 2013; Manning et al., 2010). Probes for 1q12h, 1q telomere, chromosome 8 centromere (alpha satellite), and X centromere (alpha satellite) were purchased from Rainbow Scientific. Probes for Xq13.1 (RP11-177A4), Zebrafish BCL9 (CH73-15J19) and Zebrafish IGBP1 (CH73-223D24) were purchased as BAC clones from Children's Hospital Oakland Research Institute (CHORI BacPac) clone repository. Probes for 1q21.2 (BCL9) and 1q23.3 were purchased from Agilent (SureFISH).
FISH was performed as described in (Black et al., 2013; Manning et al., 2010). Probes for 1q12h, 1q telomere, chromosome 8 centromere (alpha satellite), and X centromere (alpha satellite) were purchased from Rainbow Scientific. Probes for Xq13.1 (RP11-177A4), Zebrafish BCL9 (CH73-15J19) and Zebrafish IGBP1 (CH73-223D24) were purchased as BAC clones from Children's Hospital Oakland Research Institute (CHORI BacPac) clone repository. Probes for 1q21.2 (BCL9) and 1q23.3 were purchased from Agilent (SureFISH). BACS were prepared utilizing PureLink HiPure™ Plasmid Filter Maxiprep kit (Life Technologies) using the recommended modified wash buffer. Probes were nick translated (Abbot Molecular Kit) in the presence of fluorescently labeled dTTP (Enzo Life Science). Images of multiple planes of fields of nuclei were acquired on an Olympus IX81 T Spinning Disk Microscope and analyzed using Slidebook™ 5.0 software. A conservative scoring metric was used for copy gain. Any foci that were touching were scored as a single copy to prevent increased numbers due to normally replicated foci.

For the next data set, the system named is KDM4A. As to the kind of experiment: KDM4A protein levels by western blot. The class given is cell-based, human. Conditions: 293T cells, fractionated in presence of NEM. The protocol:
Western blot analyses were performed according to (Black et al., 2010).
Western blots were performed as in (Black et al., 2010). Briefly, adherent cells were either scraped directly into PBS, or washed with PBS, trypsinized and collected by centrifuging at 2,000 RPM for 5 minutes. For preparation of whole-cell lysates, cell pellets were washed once in ice-cold PBS and resuspended in RIPA lysis buffer [50 mM Tris pH 7.4, 150 mM NaCl, 0.25% Sodium Deoxycholate, 1% NP40, 1 mM EDTA, 10% Glycerol] supplemented with complete protease inhibitor and PhosSTOP™ phosphatase inhibitor cocktails (Roche). Cells were lysed on ice for 15 minutes and immediately frozen at −80° C. for 10 min. Lysates were subsequently sonicated at 70% amplitude for 15 minutes in a QSonica Q800R™ and cleared of cell debris by centrifuging at 12,000 RPM for 15 minutes, before being analyzed by western blotting. For HIF1α expression, adherent cells were washed twice with ice-cold PBS and scraped directly in warmed 1× Laemmli buffer. Samples were sonicated at 70% amplitude for 15 minutes and boiled immediately prior to western blotting.

The subject of a further data set is H3K9me3. As to the kind of experiment: H3K9 demethylase activity of KDM4 variants in transfected cells. The class given is cell-based. Further details: key: + indicates active; − indicates inactive; +/− indicates partial acitivty. Conditions: KDM4A mutations.
Another data set has as its system H3K36me3. The experiment in a line: H3K36 demethylase activity of KDM4A variants in transfected cells (immunofluorescence). The data set is classed as cell-based. Also noted: key: + indicates active; − indicates inactive; +/− indicates partial acitivty. The following applies: KDM4A mutations.

Substitutions are numbered along the chain they refer to. Names and notes keep the numbering of the source.

Regarding `CCCS(=O)(=O)Nc1ccc(F)c(C(=O)c2c[nH]c3ncc(Cl)cc23)c1F` [PLX-4720], the “drug sensitivity of KDM4A shRNA cells vs control vector (growth curves, doubling time)” value with HEK 293T cells (HEK293T, PLX-4720) was “more sensitive”.

With `C[C@@H]1C[C@@H]([C@H](O)CC2CC(=O)NC(=O)C2)C(=O)[C@@H](C)C1` [Cycloheximide], the “cell growth vs DMSO, KDM4A shRNA cells” value in the data set on HEK 293T cells (HEK293T KDM4A shRNA, 30 nM) is “slow growth”. Besides, the “cell growth vs DMSO, control vector cells” value in the data set on HEK 293T cells (HEK293T control vector, 30 nM) is “do not slow growth”.

With “HP1γ: H3K9me3 binding protein, overexpressed by transfection”, in data set [1], the “hypoxia-dependent copy gain of 1q12h” value is on record as “able to abrogate hypoxic induction of site-specific copy gain”, the “hypoxia-induced 1q12h copy number gains” value was “antagonized” and the “KDM4A-dependent 1q12h copy gain upon co-expression” value is given as “significantly reduced the number of KDM4A overexpressing cells with altered copy number of 1q12h”.

As to `CCN1C(=O)C=CC1=O` [NEM], the “hypoxia-induced changes in KDM4A levels and/or localization” value with KDM4A (1% O2 6h) is “reduced”. Further, the KDM4A chromatin association entry in the data set with KDM4A is “alters the chromatin association”.

`O=C1NC(=NCc2cccs2)S/C1=C\c1ccc2ncccc2c1` [R03306, reference compound]: the “1q12h copy number in KDM4A overexpressing cells upon arrest” value in data set [1] (stable GFP-KDM4A RPE cells, arrested 20 hours) is listed as “failed to display increased copy number of 1q12h”.

B1: Suv39H1: H3K9me3 methyltransferase, overexpressed by transfection (protein, UniProt O43463 1-412, looked up)
Histone-lysine …: MAENLKGCSVCCKSSWNQLQDLCRLAKLSCPALGISKRNLYDFEVEYLCDYKKIREQEYYLVKWRGYPDSESTWEPRQNLKCVRILKQFHKDLERELLRRHHRSKTPRHLDPSLANYLVQKAKQRRALRRWEQELNAKRSHLGRITVENEVDLDGPPRAFVYINEYRVGEGITLNQVAVGCECQDCLWAPTGGCCPGASLHKFAYNDQGQVRLRAGLPIYECNSRCRCGYDCPNRVVQKGIRYDLCIFRTDDGRGWGVRTLEKIRKNSFVMEYVGEIITSEEAERRGQIYDRQGATYLFDLDYVEDVYTVDAAYYGNISHFVNHSCDPNLQVYNVFIDNLDERLPRIAFFATRTIRAGEELTFDYNMQVDPVDMESTRMDSNFGLAGLPGSPKKRVRIECKCGTESCRKYLF
modifications: Halo tag
notes: H3K9me3 methyltransferase, overexpressed by transfection
B1: in data set [1], the “hypoxia-dependent copy gain of 1q12h” value is listed as “able to abrogate hypoxic induction of site-specific copy gain”, the “hypoxia-induced 1q12h copy number gains” value is given as “antagonized” and the “KDM4A-dependent 1q12h copy gain upon co-expression” value is listed as “sufficient to abrogate KDM4A-dependent 1q12h copy gain”.

B2: 2A-E1032K: KDM4A mutation (protein)
chain: MASESETLNPSARIMTFYPTMEEFRNFSRYIAYIESQGAHRAGLAKVVPPKEWKPRASYDDIDDLVIPAPIQQLVTGQSGLFTQYNIQKKAMTVREFRKIANSDKYCTPRYSEFEELERKYWKNLTFNPPIYGADVNGTLYEKHVDEWNIGRLRTILDLVEKESGITIEGVNTPYLYFGMWKTSFAWHTEDMDLYSINYLHFGEPKSWYSVPPEHGKRLERLAKGFFPGSAQSCEAFLRHKMTLISPLMLKKYGIPFDKVTQEAGEFMITFPYGYHAGFNHGFNCAESTNFATRRWIEYGKQAVLCSCRKDMVKISMDVFVRKFQPERYKLWKAGKDNTVIDHTLPTPEAAEFLKESELPPRAGNEEECPEEDMEGVEDGEEGDLKTSLAKHRIGTKRHRVCLEIPQEVSQSELFPKEDLSSEQYEMTECPAALAPVRPTHSSVRQVEDGLTFPDYSDSTEVKFEELKNVKLEEEDEEEEQAAAALDLSVNPASVGGRLVFSGSKKKSSSSLGSGSSRDSISSDSETSEPLSCRAQGQTGVLTVHSYAKGDGRVTVGEPCTRKKGSAARSFSERELAEVADEYMFSLEENKKSKGRRQPLSKLPRHHPLVLQECVSDDETSEQLTPEEEAEETEAWAKPLSQLWQNRPPNFEAEKEFNETMAQQAPHCAVCMIFQTYHQVEFGGFNQNCGNASDLAPQKQRTKPLIPEMCFTSTGCSTDINLSTPYLEEDGTSILVSCKKCSVRVHASCYGVPPAKASEDWMCSRCSANALEEDCCLCSLRGGALQRANDDRWVHVSCAVAILEARFVNIAERSPVDVSKIPLPRFKLKCIFCKKRRKRTAGCCVQCSHGRCPTAFHVSCAQAAGVMMQPDDWPFVVFITCFRHKIPNLERAKGALQSITAGQKVISKHKNGRFYQCEVVRLTTETFYEVNFDDGSFSDNLYPEDIVSQDCLQFGPPAEGEVVQVRWTDGQVYGAKFVASHPIQMYQVEFEDGSQLVVKRDDVYTLDEELPKRVKSRLSVASDMRFNEIFTKKEVKQEKKRQRVINSRYREDYIEPALYRAIME
Take B2: in the data set on H3K9me3, the “H3k9 Demethylase Activity” value is reported as “+”. Moreover, the “H3k36 Demethylase Activity” value in the data set with H3K36me3 is given as “+”.

B3: 2A-E23K: KDM4A mutation (protein)
chain: B2 chain with E23K, K1032E
In the case of B3, in the data set on H3K9me3, the “H3k9 Demethylase Activity” value is listed as “+”. The “H3k36 Demethylase Activity” value in the data set with H3K36me3 is “+”.

B4: 2A-S28N: KDM4A mutation (protein)
chain: B2 chain with S28N, K1032E
Consider B4, for which the “H3k9 Demethylase Activity” value with H3K9me3 is given as “+”. Moreover, the “H3k36 Demethylase Activity” value in the data set with H3K36me3 is listed as “+”.
